The test concerns the target Protein kinase C, PKC; classical/novel. The experiment in a line: Binding to PKC in 3[H]-[…] assay. Format: protein assay.

Regarding `CC(C)[C@@H]1Nc2c3c(cc4[nH]cc(c24)C[C@@H](CO)NC1=O)C(C)(C)CCC3(C)C`, the IC50 (commonly the point on the concentration scale where inhibition reaches its midpoint) is recorded as 400 nM.
